Laboratory results taken from US6552080B1, “Fungicidal compounds having a fluorovinyl-or fluoropropenyl-oxyphenyloxime moiety and process for the preparation thereof” (Korea Research Institute of Chemical Technology, priority 1999, dated 2003).
Read-outs that look alike come from different tables or passages of the source.

Tests used:
[1] = tested on: Pyricularia oryzae Carvara KA301; assay type: in vivo; conditions: for RCV (Fungicidal Activities, C.V.): Rice Blast
[2] = tested on: Erysiphae graminis; assay: Fungicidal activity against Barley Powdery Mildew (BPM) disease; assay type: in vivo; conditions: for BPM (Fungicidal Activities, C.V.): Barley Powdery Mildew
[3] = tested on: Botrytis cinerae; assay: Fungicidal activity against Cucumber Gray Mold Rot (CGM) disease; assay type: in vivo; conditions: for CGM (Fungicidal Activities, C.V.): Cucumber Gray Mold Rot, concentration 50 ppm
[4] = tested on: Puccinia recondita; assay: Fungicidal activity against Wheat Leaf Rust (WLR) disease; assay type: in vivo; conditions: for WLR (Fungicidal Activities, C.V.): Wheat Leaf Rust
[5] = tested on: Phytophthora infestans; assay type: in vivo; conditions: for TLB (Fungicidal Activities, C.V.): Tomato Late Blight
[6] = tested on: Rhizoctonia solani AG-1; assay: Fungicidal activity against Rice Sheath Blight (RSB) disease; conditions: for RSB (Fungicidal Activities, C.V.): Rice Sheath Blight

CON=C(C(=O)OC)c1ccccc1CON=C(C)c1cccc(OC(F)=C(c2ccc(Br)cc2)C(F)(F)F)c1 [Compound 187]
Fungicidal Activities RCV (C.V.) ([1]; 2 ppm): 97% | Fungicidal Activities RCV (C.V.) ([1]; 50 ppm): 83% | Fungicidal Activities BPM (C.V.) ([2]; 2 ppm): 97% | Fungicidal Activities BPM (C.V.) ([2]; 50 ppm): 98% | Fungicidal Activities CGM (C.V.) ([3]; 50 ppm): 0% | Fungicidal Activities WLR (C.V.) ([4]; 2 ppm): 95% | Fungicidal Activities WLR (C.V.) ([4]; 50 ppm): 100% | Fungicidal Activities TLB (C.V.) ([5]; 2 ppm): 25% | Fungicidal Activities TLB (C.V.) ([5]; 50 ppm): 0% | Fungicidal Activities RSB (C.V.) ([6]; 2 ppm): 20% | Fungicidal Activities RSB (C.V.) ([6]; 50 ppm): 85%

COC=C(C(=O)OC)c1ccccc1CON=C(C)c1cccc(OC(F)=Cc2ccc(Cl)c(C)c2)c1 [Compound 52]
RCV (Fungicidal Activities, C.V.) ([1]; concentration 10 ppm): 80% | RCV (Fungicidal Activities, C.V.) ([1]; concentration 50 ppm): 97% | BPM (Fungicidal Activities, C.V.) ([2]; concentration 10 ppm): 100% | BPM (Fungicidal Activities, C.V.) ([2]; concentration 50 ppm): 100% | CGM (Fungicidal Activities, C.V.) [3]: 52% | WLR (Fungicidal Activities, C.V.) ([4]; concentration 10 ppm): 96% | WLR (Fungicidal Activities, C.V.) ([4]; concentration 50 ppm): 100% | TLB (Fungicidal Activities, C.V.) ([5]; concentration 50 ppm): 42% | RSB (Fungicidal Activities, C.V.) ([6]; concentration 50 ppm): 65%

CNC(=O)C(=COC)c1ccccc1CON=C(C)c1cccc(OC(F)=Cc2ccc(C)cc2)c1 [Compound 57]
RCV (Fungicidal Activities, C.V.) ([1]; concentration 2 ppm): 95% | RCV (Fungicidal Activities, C.V.) ([1]; concentration 50 ppm): 99% | BPM (Fungicidal Activities, C.V.) ([2]; concentration 2 ppm): 0% | BPM (Fungicidal Activities, C.V.) ([2]; concentration 50 ppm): 98% | CGM (Fungicidal Activities, C.V.) [3]: 8% | WLR (Fungicidal Activities, C.V.) ([4]; concentration 2 ppm): 27% | WLR (Fungicidal Activities, C.V.) ([4]; concentration 50 ppm): 98% | TLB (Fungicidal Activities, C.V.) ([5]; concentration 50 ppm): 0% | RSB (Fungicidal Activities, C.V.) ([6]; concentration 50 ppm): 47%

CNC(=O)C(=NOC)c1ccccc1CON=C(C)c1cccc(OC(F)=C(c2ccc(F)cc2)C(F)(F)F)c1 [Compound 199]
Fungicidal Activities RCV (C.V.) ([1]; 2 ppm): 100% | Fungicidal Activities RCV (C.V.) ([1]; 50 ppm): 100% | Fungicidal Activities BPM (C.V.) ([2]; 2 ppm): 100% | Fungicidal Activities BPM (C.V.) ([2]; 50 ppm): 100% | Fungicidal Activities CGM (C.V.) ([3]; 50 ppm): 80% | Fungicidal Activities WLR (C.V.) ([4]; 2 ppm): 99% | Fungicidal Activities WLR (C.V.) ([4]; 50 ppm): 100% | Fungicidal Activities TLB (C.V.) ([5]; 2 ppm): 12% | Fungicidal Activities TLB (C.V.) ([5]; 50 ppm): 60% | Fungicidal Activities RSB (C.V.) ([6]; 2 ppm): 35% | Fungicidal Activities RSB (C.V.) ([6]; 50 ppm): 100%

COC=C(C(=O)OC)c1ccccc1CON=C(c1cccc(OC(F)=Cc2ccc(C)cc2)c1)C(F)(F)F [Compound 85]
RCV (Fungicidal Activities, C.V.) ([1]; concentration 10 ppm): 16% | RCV (Fungicidal Activities, C.V.) ([1]; concentration 50 ppm): 93% | BPM (Fungicidal Activities, C.V.) ([2]; concentration 10 ppm): 92% | BPM (Fungicidal Activities, C.V.) ([2]; concentration 50 ppm): 99% | CGM (Fungicidal Activities, C.V.) [3]: 7% | WLR (Fungicidal Activities, C.V.) ([4]; concentration 10 ppm): 93% | WLR (Fungicidal Activities, C.V.) ([4]; concentration 50 ppm): 96% | TLB (Fungicidal Activities, C.V.) ([5]; concentration 50 ppm): 0% | RSB (Fungicidal Activities, C.V.) ([6]; concentration 50 ppm): 40%

CON=C(C(=O)OC)c1ccccc1CON=C(C)c1cccc(OC(F)=Cc2ccc(OC)cc2)c1 [Compound 72]
RCV (Fungicidal Activities, C.V.) ([1]; concentration 2 ppm): 100% | RCV (Fungicidal Activities, C.V.) ([1]; concentration 50 ppm): 98% | BPM (Fungicidal Activities, C.V.) ([2]; concentration 2 ppm): 100% | BPM (Fungicidal Activities, C.V.) ([2]; concentration 50 ppm): 100% | CGM (Fungicidal Activities, C.V.) [3]: 0% | WLR (Fungicidal Activities, C.V.) ([4]; concentration 2 ppm): 98% | WLR (Fungicidal Activities, C.V.) ([4]; concentration 50 ppm): 100% | TLB (Fungicidal Activities, C.V.) ([5]; concentration 2 ppm): 0% | TLB (Fungicidal Activities, C.V.) ([5]; concentration 50 ppm): 66% | RSB (Fungicidal Activities, C.V.) ([6]; concentration 2 ppm): 25% | RSB (Fungicidal Activities, C.V.) ([6]; concentration 50 ppm): 65%

OC(c1ccc(Cl)cc1)(c1cncnc1)c1ccccc1Cl (stereo not shown) [FENARIMOL, reference compound]
Fungicidal Activities RCV (C.V.) ([1]; 0.08 ppm): 0% | Fungicidal Activities RCV (C.V.) ([1]; 0.40 ppm): 0% | Fungicidal Activities RCV (C.V.) ([1]; 2 ppm): 0% | Fungicidal Activities RCV (C.V.) ([1]; 10 ppm): 0% | Fungicidal Activities BPM (C.V.) ([2]; 0.08 ppm): 50% | Fungicidal Activities BPM (C.V.) ([2]; 0.40 ppm): 95% | Fungicidal Activities BPM (C.V.) ([2]; 2 ppm): 100% | Fungicidal Activities BPM (C.V.) ([2]; 10 ppm): 100% | Fungicidal Activities CGM (C.V.) ([3]; 0.08 ppm): 0% | Fungicidal Activities CGM (C.V.) ([3]; 0.40 ppm): 7% | Fungicidal Activities CGM (C.V.) ([3]; 2 ppm): 7% | Fungicidal Activities CGM (C.V.) ([3]; 10 ppm): 7% | Fungicidal Activities WLR (C.V.) ([4]; 0.08 ppm): 15% | Fungicidal Activities WLR (C.V.) ([4]; 0.40 ppm): 15% | Fungicidal Activities WLR (C.V.) ([4]; 2 ppm): 80% | Fungicidal Activities WLR (C.V.) ([4]; 10 ppm): 100% | Fungicidal Activities TLB (C.V.) ([5]; 0.08 ppm): 0% | Fungicidal Activities TLB (C.V.) ([5]; 0.40 ppm): 60% | Fungicidal Activities TLB (C.V.) ([5]; 2 ppm): 75% | Fungicidal Activities TLB (C.V.) ([5]; 10 ppm): 80% | Fungicidal Activities RSB (C.V.) ([6]; 0.08 ppm): 14% | Fungicidal Activities RSB (C.V.) ([6]; 0.40 ppm): 30% | Fungicidal Activities RSB (C.V.) ([6]; 2 ppm): 40% | Fungicidal Activities RSB (C.V.) ([6]; 10 ppm): 85%

CNC(=O)C(=COC)c1ccccc1CON=C(C)c1cccc(OC(F)=Cc2ccc3c(c2)OCO3)c1 [Compound 63]
RCV (Fungicidal Activities, C.V.) ([1]; concentration 50 ppm): 96% | BPM (Fungicidal Activities, C.V.) ([2]; concentration 50 ppm): 97% | CGM (Fungicidal Activities, C.V.) [3]: 33% | WLR (Fungicidal Activities, C.V.) ([4]; concentration 50 ppm): 90% | TLB (Fungicidal Activities, C.V.) ([5]; concentration 50 ppm): 0% | RSB (Fungicidal Activities, C.V.) ([6]; concentration 50 ppm): 11%

COC=C(C(=O)OC)c1ccccc1CON=C(C)c1cccc(OC(F)=Cc2ccc(Cl)cc2)c1 [Compound 54]
RCV (Fungicidal Activities, C.V.) ([1]; concentration 2 ppm): 97% | RCV (Fungicidal Activities, C.V.) ([1]; concentration 10 ppm): 99% | RCV (Fungicidal Activities, C.V.) ([1]; concentration 50 ppm): 100% | BPM (Fungicidal Activities, C.V.) ([2]; concentration 2 ppm): 99% | BPM (Fungicidal Activities, C.V.) ([2]; concentration 10 ppm): 100% | BPM (Fungicidal Activities, C.V.) ([2]; concentration 50 ppm): 100% | CGM (Fungicidal Activities, C.V.) [3]: 51% | WLR (Fungicidal Activities, C.V.) ([4]; concentration 2 ppm): 97% | WLR (Fungicidal Activities, C.V.) ([4]; concentration 10 ppm): 100% | WLR (Fungicidal Activities, C.V.) ([4]; concentration 50 ppm): 100% | TLB (Fungicidal Activities, C.V.) ([5]; concentration 50 ppm): 84% | RSB (Fungicidal Activities, C.V.) ([6]; concentration 2 ppm): 50% | RSB (Fungicidal Activities, C.V.) ([6]; concentration 10 ppm): 80% | RSB (Fungicidal Activities, C.V.) ([6]; concentration 50 ppm): 90%

CNC(=O)C(=NOC)c1ccccc1CON=C(C)c1cccc(OC(F)=C(c2cc(C)cc(C)c2)C(F)(F)F)c1 [Compound 194]
Fungicidal Activities RCV (C.V.) ([1]; 2 ppm): 95% | Fungicidal Activities RCV (C.V.) ([1]; 50 ppm): 100% | Fungicidal Activities BPM (C.V.) ([2]; 2 ppm): 0% | Fungicidal Activities BPM (C.V.) ([2]; 50 ppm): 98% | Fungicidal Activities CGM (C.V.) ([3]; 50 ppm): 16% | Fungicidal Activities WLR (C.V.) ([4]; 2 ppm): 20% | Fungicidal Activities WLR (C.V.) ([4]; 50 ppm): 98% | Fungicidal Activities TLB (C.V.) ([5]; 50 ppm): 0% | Fungicidal Activities RSB (C.V.) ([6]; 50 ppm): 64%

COC=C(C(=O)OC)c1ccccc1CON=C(C)c1cccc(OC(F)=Cc2ccc(OC)cc2)c1 [Compound 48]
RCV (Fungicidal Activities, C.V.) ([1]; concentration 2 ppm): 41% | RCV (Fungicidal Activities, C.V.) ([1]; concentration 10 ppm): 96% | RCV (Fungicidal Activities, C.V.) ([1]; concentration 50 ppm): 100% | BPM (Fungicidal Activities, C.V.) ([2]; concentration 2 ppm): 100% | BPM (Fungicidal Activities, C.V.) ([2]; concentration 10 ppm): 100% | BPM (Fungicidal Activities, C.V.) ([2]; concentration 50 ppm): 100% | CGM (Fungicidal Activities, C.V.) [3]: 64% | WLR (Fungicidal Activities, C.V.) ([4]; concentration 2 ppm): 99% | WLR (Fungicidal Activities, C.V.) ([4]; concentration 10 ppm): 100% | WLR (Fungicidal Activities, C.V.) ([4]; concentration 50 ppm): 100% | TLB (Fungicidal Activities, C.V.) ([5]; concentration 50 ppm): 95% | RSB (Fungicidal Activities, C.V.) ([6]; concentration 50 ppm): 75%

CON=C(C(=O)OC)c1ccccc1CON=Cc1cccc(OC(F)=Cc2ccccc2)c1 [Compound 24]
RCV (Fungicidal Activities, C.V.) ([1]; concentration 2 ppm): 28% | RCV (Fungicidal Activities, C.V.) ([1]; concentration 10 ppm): 88% | RCV (Fungicidal Activities, C.V.) ([1]; concentration 50 ppm): 97% | BPM (Fungicidal Activities, C.V.) ([2]; concentration 2 ppm): 95% | BPM (Fungicidal Activities, C.V.) ([2]; concentration 10 ppm): 100% | BPM (Fungicidal Activities, C.V.) ([2]; concentration 50 ppm): 100% | CGM (Fungicidal Activities, C.V.) [3]: 50% | WLR (Fungicidal Activities, C.V.) ([4]; concentration 2 ppm): 95% | WLR (Fungicidal Activities, C.V.) ([4]; concentration 10 ppm): 97% | WLR (Fungicidal Activities, C.V.) ([4]; concentration 50 ppm): 99% | TLB (Fungicidal Activities, C.V.) ([5]; concentration 50 ppm): 33% | RSB (Fungicidal Activities, C.V.) ([6]; concentration 2 ppm): 44% | RSB (Fungicidal Activities, C.V.) ([6]; concentration 10 ppm): 72% | RSB (Fungicidal Activities, C.V.) ([6]; concentration 50 ppm): 95%

CNC(=O)C(=COC)c1ccccc1CON=C(C)c1cccc(OC(F)=Cc2cccc(Cl)c2)c1 [Compound 62]
RCV (Fungicidal Activities, C.V.) ([1]; concentration 2 ppm): 92% | RCV (Fungicidal Activities, C.V.) ([1]; concentration 50 ppm): 96% | BPM (Fungicidal Activities, C.V.) ([2]; concentration 2 ppm): 0% | BPM (Fungicidal Activities, C.V.) ([2]; concentration 50 ppm): 100% | CGM (Fungicidal Activities, C.V.) [3]: 25% | WLR (Fungicidal Activities, C.V.) ([4]; concentration 2 ppm): 83% | WLR (Fungicidal Activities, C.V.) ([4]; concentration 50 ppm): 99% | TLB (Fungicidal Activities, C.V.) ([5]; concentration 50 ppm): 0% | RSB (Fungicidal Activities, C.V.) ([6]; concentration 50 ppm): 0%
